Laboratory results as given in patent US20220347118A1, “STABLE MEDICINAL CANNABIDIOL COMPOSITIONS” (CARDIOL THERAPEUTICS INC., priority 2019, published 2022).

Legend:
CB2 receptor = CB2 receptor (Homo sapiens, UniProt P34972); conditions: Proc Natl Acad Sci USA. 2008; 105(26):9099-104; cited from earlier work
Solubility of CBD in BCP = assay type: physicochemical; conditions: in 1 mL of BCP and its derivatives
Method: For example, at least 300 mg of CBD can be dissolved in 1 mL of BCP and its derivatives. The enhanced stability of the CBD provides a composition with an acceptable shelf life and which can provide consistency in dosing and enhanced safety.

Chain of CB2 receptor (P34972 whole entry): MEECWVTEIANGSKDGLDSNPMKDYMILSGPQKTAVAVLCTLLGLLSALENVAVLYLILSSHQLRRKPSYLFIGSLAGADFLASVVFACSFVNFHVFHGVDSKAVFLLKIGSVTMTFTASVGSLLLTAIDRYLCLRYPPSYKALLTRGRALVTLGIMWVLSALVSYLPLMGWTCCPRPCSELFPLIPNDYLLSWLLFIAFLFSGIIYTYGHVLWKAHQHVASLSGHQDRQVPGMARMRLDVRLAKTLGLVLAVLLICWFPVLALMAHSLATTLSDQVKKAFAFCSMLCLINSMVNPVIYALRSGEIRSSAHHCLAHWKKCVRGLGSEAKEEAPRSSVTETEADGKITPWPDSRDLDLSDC

Compound | CB2 receptor binding / functional activity (CB2 receptor) | amount of CBD that can be dissolved in BCP (Solubility of CBD in BCP)
C=C1CC/C=C(\C)CC[C@@H]2[C@@H]1CC2(C)C [β-caryophyllene, trans-(1R,9S)-8-Methylene-4,11,11-trimethylbicyclo[7.2.0]undec-4-ene] | selectively binds to the CB2 receptor and is a functional CB2 agonist | 
C=C(C)[C@@H]1CCC(C)=C[C@H]1c1c(O)cc(CCCCC)cc1O [CBD, cannabidiol] |  | at least 300 mg
